Measured values reported in patent publication US5089623A, “Certain imidate insecticides” (Imperial Chemical Industries Plc, priority 1990, dated 1992).

Legend:
Assay type in all cases: in vivo
[1] = test system: Housefly [Musca domestica]; assay: Housefly insecticidal test (HF); conditions: per 25 female houseflies, 48 hours
[2] = test system: Tobacco Budworm [Heliothis virescens (Fabricius)] eggs; assay: Tobacco budworm egg test (TBW-E); conditions: percent in solution
[3] = test system: Cabbage Looper [Trichoplusia ni (Hubner)]; assay: Cabbage looper test (CL); conditions: second-instar larvae, 3-5 days, percent in solution
[4] = test system: Aster Leafhopper [Macrosteles fascifrens (Stal)]; assay: Aster leafhopper test (LH); conditions: adults/nymphs, 48 hours, percent in solution
[5] = test system: Maize weevil [Sitophilus Zeamais (Motschulsky)]; assay: Maize weevil test (MW); conditions: adult weevils, treated corn seeds, 48 hours, percent in solution
In short: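 Adult weevils (10) were placed with four corn seeds that had been dipped 2-3 s in compound dissolved in 50:50 acetone:water, then dried, and held at about 25° C. Mortality was scored at 48 h. LC50 was taken from dosage-mortality curves and expressed as percent compound in solution, from a 0.01% top concentration.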

Row | Structure (SMILES) | LC50 HF [1] [µg] | LC50 TBW E [2] [%] | LC50 CL [3] [%] | LC50 LH [4] [%] | LC50 MW [5] [%]
1 | CCc1cccc(N=C(OCc2cccc(Oc3ccccc3)c2)C(C)C)c1 [Compound 154] | 25 | 0.1 | 0.004 | > 0.05 | 
2 | CCc1ccc(N=C(OCc2cccc(Oc3ccc(F)cc3)c2)C(C)C)cc1 [Compound 159] | 25 | 0.08 | 0.001 | 0.0025 | 
3 | CCc1ccc(N=C(OCc2cccc(Oc3ccccc3)c2)C(C)C)cc1 [Compound 161] | 15 | 0.07 | 0.0014 | 0.002 | 
4 | CCc1cccc(N=C(OCc2cccc(Oc3ccccc3)c2)C(C)(C)C)c1 [Compound 162] | > 100 | > 0.1 | 0.035 | > 0.05 | 
5 | CC(C)C(=Nc1ccc2c(c1)CCC2)OCc1cccc(Oc2ccccc2)c1 [Compound 187] | 15 | > 0.1 | 0.0025 | 0.0025 | 
6 | CCCC(=Nc1ccc2c(c1)OCO2)OCc1cccc(Oc2ccccc2)c1 [Compound 188] | 12 | > 0.1 | 0.002 | > 0.05 | 
7 | Cc1ccc(Oc2cccc(COC(=Nc3ccc(F)c(Cl)c3)C(C)C)c2)cc1 [Compound 225] | > 100 | > 0.1 | 0.0025 | > 0.05 | 
8 | CC(C)C(=Nc1ccc(C(C)C)cc1)OCc1cccc(Oc2ccc(F)cc2)c1 [Compound 228] | > 100 | > 0.1 | 0.0025 | > 0.05 | 
9 | CC(C)C(=Nc1ccc2c(c1)OC(C)(C)O2)OCc1ccc(F)c(Oc2ccccc2)c1 [Compound 242] | < 100 | > 0.1 | 0.00025 | > 0.05 | 
10 | CSc1ccc(Oc2cccc(COC(=Nc3ccc(F)cc3)C(C)C)c2)cc1 [Compound 257] | > 100 | > 0.1 | 0.008 | > 0.05 | 
11 | Fc1ccc(Oc2cccc(COC(=Nc3ccc(F)c(Cl)c3)C(F)(F)C(F)(F)F)c2)cc1 [Compound 258] | > 100 | > 0.1 | 0.003 | > 0.05 | 
12 | CC(C)C(=Nc1cccc([N+](=O)[O-])c1)OCc1cccc(Oc2ccc(Cl)cc2)c1 [Compound 271] | 27 | 0.1 | 0.0004 | > 0.05 | 
13 | CC(C)C(=Nc1cc(F)ccc1Cl)OCc1ccc(F)c(Oc2ccc(F)cc2)c1 [Compound 303] | > 100 | > 0.1 | 0.0015 | 0.0005 | 
14 | CC(C)C(=Nc1ccc(Cl)cc1)OC(C)c1cccc(Oc2ccccc2)c1 (centres unmarked) [Compound 457] | > 100 | > 0.05 | 0.009 | > 0.05 | 
15 | CC(C)C(=Nc1ccc2c(c1)OCO2)OCc1cccc(Oc2ccc(F)cc2)n1 [Compound 465] | 8 | 0.027 | 0.0017 | 0.0025 | 
16 | CC(C)C(=Nc1ccc(OC(F)(F)F)cc1)OCc1cccc(Cc2ccccc2)c1 [Compound 538] | 75 |  | > 0.1 | > 0.05 | > 0.01
17 | CC(C)C(=Nc1cccc(C(F)(F)F)c1)OCC#CCOc1ccccc1 [Compound 548] | > 100 | > 0.1 | < 0.1 | > 0.05 | 
